Measurements reported in US20080118553A1, “Tannate salt form of polypeptide mixtures, their preparation and use” (priority 2006, published 2008).

System: splenocytes (glatiramer specific T cells)
Assay: Ex-vivo testing in CJSL mice: cytokine secretion by splenocytes activated in vitro with GA RS after daily feeding
Set-up: key: BQL: Below Quantifiable Limit; BDL: Below Detectable Limit; AQL: Above Quantifiable Limit
Conditions: 50 μg/ml GA RS in-vitro
Procedure: Studies were conducted to test the potential properties of the mixture of polypeptides of the invention. In particular, the studies were to determine whether the mixture of polypeptides of the invention would elicit an immune response with similar cytokine patterns as those elicited by glatiramer acetate when tested in an ex-vivo model in mice.
Beginning on Day 0, groups of 4 CJSL Mice were fed daily with GA reference standard (GA RS, 12.5 μg/kg). Glatiramer Tannate (amount equivalent to 18.75 μg/kg), tannic acid (negative control, in an amount equivalent to the tannate administered to the 18.75 μg/kg glatiramer tannate group) or phosphate buffered saline (PBS—placebo control). During period of study, subsets of mice in each treatment group were sacrificed on days 4, 7 and 11. Spleens were excised and primary cell cultures were prepared. The effect of the treatment was tested by in-vitro activation of splenocytes with GA RS 50 μg/ml. The response of the cells to the challenge is a measure of previous exposure to Glatiramer and the generation of glatiramer specific T cells. T-cell response was monitored by detection of cytokines secreted from activated cells by ELISA analysis. The levels of IL-2, IL-3 and IL-5 cytokines were examined.

[1] = glatiramer treatment dose 12.5 Mg/kg daily oral, day of treatment 4
[2] = glatiramer treatment dose 12.5 Mg/kg daily oral, day of treatment 7
[3] = glatiramer treatment dose 12.5 Mg/kg daily oral, day of treatment 11
[4] = glatiramer dose NA (tannic acid equivalent to the tannate of the 18.75 group) daily oral, day of treatment 4
[5] = glatiramer dose NA (tannic acid equivalent to the tannate of the 18.75 group) daily oral, day of treatment 7
[6] = glatiramer dose NA (tannic acid equivalent to the tannate of the 18.75 group) daily oral, day of treatment 11

| Molecule | IL-2 secretion [1] | IL-3 secretion [1] | IL-5 secretion [1] | IL-2 secretion [2] | IL-3 secretion [2] | IL-5 secretion [2] | IL-2 secretion [3] | IL-3 secretion [3] | IL-5 secretion [3] | IL-2 secretion [4] | IL-3 secretion [4] | IL-5 secretion [4] | IL-2 secretion [5] | IL-3 secretion [5] | IL-5 secretion [5] | IL-2 secretion [6] | IL-3 secretion [6] | IL-5 secretion [6] |
| --- | --- | --- | --- | --- | --- | --- | --- | --- | --- | --- | --- | --- | --- | --- | --- | --- | --- | --- |
| L-glutamic acid polymer with L-alanine, L-lysine and L-tyrosine, acetate (salt) [GA] | BQL | BQL | BDL | 121.5 pg/mL | 456.5 pg/mL | BQL | 119.0 pg/mL | 701.6 pg/mL | BQL | – | – | – | – | – | – | – | – | – |
| O=C(OC[C@H]1O[C@@H](OC(=O)c2cc(O)c(O)c(OC(=O)c3cc(O)c(O)c(O)c3)c2)[C@H](OC(=O)c2cc(O)c(O)c(OC(=O)c3cc(O)c(O)c(O)c3)c2)[C@@H](OC(=O)c2cc(O)c(O)c(OC(=O)c3cc(O)c(O)c(O)c3)c2)[C@@H]1OC(=O)c1cc(O)c(O)c(OC(=O)c2cc(O)c(O)c(O)c2)c1)c1cc(O)c(O)c(OC(=O)c2cc(O)c(O)c(O)c2)c1 [Tannic Acid, tannic acid] | – | – | – | – | – | – | – | – | – | BQL | BQL | BDL | 26.7 pg/mL | 76.9 pg/mL | BQL | 16.6 pg/mL | 63.2 pg/mL | BQL |
